Results reported in patent US7825127B2, “Method for treating cancer” (Takeda Pharmaceutical Company, Limited, priority 2006, dated 2010).

Tests used:
Test in all cases: Sulforhodamine B cell growth inhibitory assay
Type in all cases: cell-based
[1] = tested on: BT-474; settings: BT-474 (FIG. 2A), 5 days
Procedure: (§1) Sulforhodamine B staining method was used for cell growth inhibitory assay. Each cell was plated on a 96 well plate (Nunc). The next day, compound X was serially diluted and added thereto. The cell lines used and the terms of incubation of the compound are indicated separately. To immobilize the cells, 25% glutaraldehyde solution (Wako, 50 μL) was added to the culture medium (200 μL) and the mixture was left standing at room temperature for 15 min.
(§2) The plate was then washed once with PBS (Invitrogen), 200 μL of PBS was added, 25 μL of 50% trichloroacetic acid (Wako) was added, and the mixture was left standing at 4° C. for 1 hr or longer. The plate was washed 5 times with tap water, redundant water was removed by slamming the plate against paper towels. A 1% (W/W) acetic acid solution (50 μL) containing 0.4% (w/v) Sulforhodamine B (SRB, Sigma) was added to each well and, 15 min later, the plate was washed 3 times with 1% acetic acid solution. The plate was thoroughly dried, 10 mM Tris solution was added, and the mixture was stirred well in a plate shaker, and the absorbance at 550 nm was measured (Bio-Rad, Benchmark Plus).

[2] = tested on: MCF-7; settings: MCF-7 (FIG. 2C), 3 days
Procedure: as §1, §2

[3] = tested on: SK-BR-3; settings: SK-BR-3 (FIG. 2B), 5 days
Procedure: as §1, §2

SMILES: CC(C)(O)CC(=O)NCCn1ccc2ncnc(Nc3ccc(Oc4cccc(C(F)(F)F)c4)c(Cl)c3)c21 [compound X, N-{2-[4-({3-chloro-4-[3-(trifluoromethyl)phenoxy]phenyl}amino)-5H-pyrrolo[3,2-d]pyrimidin-5-yl]ethyl}-3-hydroxy-3-methylbutanamide]
- sensitivity of cells to growth inhibition [1]: high-sensitive
- sensitivity of cells to growth inhibition [2]: low-sensitive
- sensitivity of cells to growth inhibition [3]: high-sensitive
